Assay results as given in patent US8003675B2 (priority 2006, dated 2011).

Key:
Stagonospora nodorum = experiment: Test for preventive effect on wheat glume blotch; assay type: in vivo; conditions: wheat (Nohrin No. 61), foliar spray 500 ppm, examined 12 days after inoculation
Experimental: Disease development degree=[(n0×0+n1×1+n2×2+n3×3+n4×4)/4×N]×100 [Expression 2]
n4: number of leaves of disease development degree 4 Protective value=[1−(disease development degree in treated plants)/(disease development degree in untreated plants)]×100 [Expression 3]
10 wheat seeds (variety: Nohrin No. 61) were sowed in a plastic cup of 5.5 cm in diameter and were grown in a greenhouse for 7 days. One of wettable powders prepared in accordance with Example 5 was diluted with water so that the concentration of active ingredient became 500 ppm, a spreader (brand name: KUMITEN) was added for the dilution factor to be 3,000 times, and a sufficient amount of the resulting solution was sprayed onto the leaves of wheat (1.5- to 2-leaf stage) using a spray gun. After air-drying, a suspension of the pycniospores of Stagonospora nodorum was sprayed for inoculation. Immediately thereafter, the wheat leaves were transferred into a moist chamber of 25° C. and allowed to stand under a bright condition for 48 hours for infection. Then, the wheat leaves were transferred into the greenhouse and, 12 days after the inoculation, the disease development index of each first leaf was examined according to the standard of Table 15. A disease development degree was calculated from the above expression 2. A protective value (%) was calculated from the above expression 3 and evaluated according to the standard of Table 16.

Pyricularia oryzae = assay type: in vivo; conditions: paddy rice (Aichi Asahi), submerged application, 10 g a.i./10 a, inoculated 10 days after treatment, lesions counted 6 days after inoculation
[1] = tested on: Colletotrichum orbiculare; experiment: Test for preventive effect for cucumber anthracnose; assay type: in vivo; conditions: cucumber (Sagamihanjiro), soil drench 10 ml at 1 ppm, inoculated 7 days later, lesions counted 7 days later
Experimental: Four cucumber seeds (variety: Sagamihanjiro) were sowed in a plastic cup of 5.5 cm in diameter, at a depth of 2 cm, and were grown in a greenhouse for 7 days. One of wettable powders prepared according to Example 5 was diluted with water so that the concentration of active ingredient became a given level. 10 ml of the dilution was poured into the soil at the root of young cucumber seedlings having cotyledons. 7 days later, a conidia suspension (10^5 to 10^6/ml) of Colletotrichum orbiculare which had been cultured in a PDA plate medium, was uniformly inoculated to the cucumber plant by hand spraying. The cup was allowed to stand, for infection, in a moist chamber of 25° C. for 24 hours. Then, the cup was allowed to stand on a basin in a glass greenhouse and, 7 day later, the number of lesions of all cotyledons in pot was examined. A protective value was calculated from the above expression 1 and evaluated according to the standard of Table 12.
Using the above-shown comparative compound, a wettable powder was prepared according to Example 5. A protective value thereof was calculated in the same manner as in the above Test Example.

SMILES | Evaluation (Stagonospora nodorum) | Evaluation (Pyricularia oryzae) | Protective value (Pyricularia oryzae) [%] | Evaluation [1] | Protective value [1] [%] | melting point [°C]
Cc1cc(COC(=O)c2cc(C)ns2)sn1 [Comparative compound, reference compound] | D (protective value: less than 25%) | D (protective value: less than 50.0%) | 45.9 | C (protective value: less than 80.0% to 50.0% or more) | 73.3 | –
CC(=O)OCc1snc(Cl)c1Cl [I-1] | – | A (protective value: 100% to 90.0% or more) | 96.1 | B (protective value: less than 90.0% to 80.0% or more) | 86.9 | –
CC=CC=CC(=O)OCc1snc(Cl)c1Cl [I-24] | – | A (protective value: 100% to 90.0% or more) | 95.2 | B (protective value: less than 90.0% to 80.0% or more) | 89.1 | –
CC(=S)OCc1snc(Cl)c1Cl [I-28, (3,4-dichloroisothiazol-5-yl)methyl thioacetate] | – | C (protective value: less than 80.0% to 50.0% or more) | 79.9 | – | – | –
O=C(OCc1snc(Cl)c1Cl)c1ccccc1 [II-1, (3,4-dichloroisothiazol-5-yl)methyl benzoate] | – | A (protective value: 100% to 90.0% or more) | 92.3 | B (protective value: less than 90.0% to 80.0% or more) | 89.1 | 79 to 80
Cc1ccccc1C(=O)OCc1snc(Cl)c1Cl [II-5] | A (protective value: 100% to 75% or more) | A (protective value: 100% to 90.0% or more) | 94.6 | – | – | –
O=C(OCc1snc(Cl)c1Cl)c1ccccc1Cl [II-14] | B (protective value: less than 75% to 50% or more) | A (protective value: 100% to 90.0% or more) | 92.4 | – | – | –
N#Cc1ccccc1C(=O)OCc1snc(Cl)c1Cl [II-17] | – | A (protective value: 100% to 90.0% or more) | 98.2 | – | – | –
COC(=O)c1ccccc1C(=O)OCc1snc(Cl)c1Cl [II-24] | A (protective value: 100% to 75% or more) | A (protective value: 100% to 90.0% or more) | 98.3 | – | – | –
O=C(OCc1snc(Cl)c1Cl)c1ccccc1[N+](=O)[O-] [II-55] | A (protective value: 100% to 75% or more) | A (protective value: 100% to 90.0% or more) | 98.8 | – | – | –
COc1ccccc1C(=O)OCc1snc(Cl)c1Cl [II-57] | A (protective value: 100% to 75% or more) | A (protective value: 100% to 90.0% or more) | 98.4 | – | – | –
CS(=O)(=O)c1ccccc1C(=O)OCc1snc(Cl)c1Cl [II-66] | A (protective value: 100% to 75% or more) | A (protective value: 100% to 90.0% or more) | 97.8 | – | – | –
Cc1cccc(C)c1C(=O)OCc1snc(Cl)c1Cl [II-77] | A (protective value: 100% to 75% or more) | C (protective value: less than 80.0% to 50.0% or more) | 74.1 | – | – | –
O=C(OCc1snc(Cl)c1Cl)c1c(Cl)cccc1Cl [II-78] | B (protective value: less than 75% to 50% or more) | C (protective value: less than 80.0% to 50.0% or more) | 77.5 | – | – | –
COc1cccc(OC)c1C(=O)OCc1snc(Cl)c1Cl [II-79] | A (protective value: 100% to 75% or more) | A (protective value: 100% to 90.0% or more) | 92.3 | – | – | –
Cc1cccc([N+](=O)[O-])c1C(=O)OCc1snc(Cl)c1Cl [II-82] | A (protective value: 100% to 75% or more) | B (protective value: less than 90.0% to 80.0% or more) | 88.0 | – | – | –
